Assay: xn = mol fraction of the nth substance listed
Details: 101.3 kPa, Liquid

COCCOC [1,2-dimethoxyethane] + ClCCCl
mass density [kg/m3]
Details | 283.15 K | 288.15 K | 293.15 K | 298.15 K | 303.15 K | 308.15 K
x2 = 0.0251 | 885.37 | 879.96 | 874.49 | 868.99 | 863.45 | 857.87
x2 = 0.05 | 893.06 | 887.61 | 882.11 | 876.59 | 871.02 | 865.42
x2 = 0.0501 | 893.14 | 887.69 | 882.19 | 876.66 | 871.08 | 865.47
x2 = 0.075 | 900.9 | 895.43 | 889.9 | 884.34 | 878.74 | 873.1
x2 = 0.1 | 908.78 | 903.28 | 897.71 | 892.12 | 886.49 | 880.82
x2 = 0.1552 | 926.63 | 921.05 | 915.42 | 909.76 | 904.05 | 898.32
x2 = 0.2001 | 941.4 | 935.76 | 930.07 | 924.35 | 918.59 | 912.79
x2 = 0.2501 | 958.23 | 952.53 | 946.77 | 940.98 | 935.15 | 929.28
x2 = 0.3002 | 975.46 | 969.68 | 963.86 | 957.99 | 952.09 | 946.16
x2 = 0.35 | 992.96 | 987.11 | 981.21 | 975.28 | 969.3 | 963.29
x2 = 0.4001 | 1010.98 | 1005.05 | 999.08 | 993.07 | 987.02 | 980.93
x2 = 0.45 | 1029.37 | 1023.36 | 1017.3 | 1011.21 | 1005.09 | 998.92
x2 = 0.5 | 1048.22 | 1042.13 | 1035.99 | 1029.82 | 1023.61 | –
x2 = 0.5001 | 1048.32 | 1042.23 | 1036.09 | 1029.91 | 1023.7 | –
x2 = 0.55 | 1067.59 | 1061.41 | 1055.19 | 1048.93 | 1042.63 | –
x2 = 0.6001 | 1087.41 | 1081.15 | 1074.83 | 1068.48 | 1062.09 | –
x2 = 0.65 | 1107.73 | 1101.37 | 1094.96 | 1088.51 | 1082.03 | –
x2 = 0.7 | 1128.6 | 1122.14 | 1115.63 | 1109.08 | 1102.5 | –
x2 = 0.75 | 1150.14 | 1143.57 | 1136.95 | 1130.3 | 1123.6 | –
x2 = 0.8 | 1172.13 | 1165.45 | 1158.71 | 1151.94 | 1145.15 | –
x2 = 0.85 | 1195.03 | 1188.23 | 1181.37 | 1174.49 | 1167.57 | –
x2 = 0.9 | 1218.48 | 1211.55 | 1204.56 | 1197.56 | 1190.51 | –
x2 = 0.925 | 1230.36 | 1223.37 | 1216.32 | 1209.25 | 1202.14 | –
x2 = 0.975 | 1254.94 | 1247.8 | 1240.62 | 1233.42 | 1226.18 | –
